These are literature values, as cited in US20070254026A1, “SOFTGEL CAPSULES” (FORBES MEDI-TECH INC., priority 2006, published 2007).

This series has as its system benign prostate hypertrophy. The settings on record: Berges.2000; Coleman.2002.

In the case of `CC[C@H](CC[C@@H](C)[C@H]1CC[C@H]2[C@@H]3CC=C4C[C@@H](O)CC[C@]4(C)[C@H]3CC[C@]12C)C(C)C` [sitosterol, β-sitosterol], the “effective dose reducing symptoms of benign prostate hypertrophy” value was 20 to 60 mg per day.
